Source: patent publication US6833389B2, “Use of thiamphenicol and derivatives thereof for the preparation of pharmaceutical compositions useful in the treatment of Chlamydia pneumoniae infections” (Zambon Group S.p.A., priority 2000, dated 2004)
Read-outs that look alike come from different tables or passages of the source.

Tests used:
Chlamydia pneumoniae [1] = conditions: background statement; cited from earlier work
Chlamydia pneumoniae [2] = test: MIC against Chlamydia pneumoniae strains in Hep-2 cell monolayers (inhibition of inclusion formation); format: cell-based
Description: Chlamydia pneumoniae TW183 and Chlamydia pneumoniae 2023 were obtained from American Type Culture Collection. The other strains (No. 9 isolated) were clinically isolated in the period 1997-1999. […] Monolayers of Hep-2 cells were prepared by seeding 2×10^5 cell/ml in EMEM with 10% fetal calf serum supplemented with L-glutammine, on 12 mm cover slips and left at 35° C., 5% CO2 for 24 to 48 hours for confluent growth. The growth medium was removed and Hep-2 monolayers were inoculated with the different strains at predetermined concentration calculated to give 3-5×10^2 inclusions for well. The monolayers, inoculated with Chlamydia pneumoniae were centrifuged at 1700 g for 60 minutes at 30° C. […] In positive control no antibiotic was added and negative control were considered wells not inoculated with Chlamydia pneumoniae. […] All tests were run in duplicate. The number of inclusions were counted and the MIC (the lowest concentration at which complete inhibition of inclusion formation was observed) was determined.

Chlamydia trachomatis = conditions: literature (Ridgeway et al. 1979); markedly lower than erythromycin; cited from earlier work
[3] = Chlamydia pneumoniae, 72 h, MIC range over the 11 Chlamydia pneumoniae strains, Hep-2 cells, 3 days, read-out: MIC
[4] = Chlamydia pneumoniae, ATCC2023, strain ATCC 2023, test I, read-out: MIC
[5] = Chlamydia pneumoniae, ATCC2023, strain ATCC 2023, test II, read-out: MIC
[6] = Chlamydia pneumoniae, strain 1 (clinical isolate), test I, read-out: MIC
[7] = Chlamydia pneumoniae, strain 1 (clinical isolate), test II, read-out: MIC
[8] = Chlamydia pneumoniae, strain 2 (clinical isolate), test I, read-out: MIC
[9] = Chlamydia pneumoniae, strain 2 (clinical isolate), test II, read-out: MIC
[10] = Chlamydia pneumoniae, strain 3 (clinical isolate), test I, read-out: MIC
[11] = Chlamydia pneumoniae, strain 3 (clinical isolate), test II, read-out: MIC
[12] = Chlamydia pneumoniae, strain 4 (clinical isolate), test II, read-out: MIC
[13] = Chlamydia pneumoniae, strain 5 (clinical isolate), test I, read-out: MIC
[14] = Chlamydia pneumoniae, strain 5 (clinical isolate), test II, read-out: MIC
[15] = Chlamydia pneumoniae, strain 6 (clinical isolate), test I, read-out: MIC
[16] = Chlamydia pneumoniae, strain 9 (clinical isolate), test II, read-out: MIC
[17] = Chlamydia pneumoniae, strain TW 183, test I, read-out: MIC
[18] = strain 4 (clinical isolate), test I
[19] = strain 7 (clinical isolate), test I
[20] = strain 7 (clinical isolate), test II
[21] = strain 8 (clinical isolate), test I
[22] = strain 8 (clinical isolate), test II
[23] = strain 9 (clinical isolate), test I
[24] = strain 1 (clinical isolate), test I
[25] = strain 1 (clinical isolate), test II
[26] = strain 2 (clinical isolate), test I
[27] = strain 2 (clinical isolate), test II
[28] = strain 3 (clinical isolate), test I
[29] = strain 3 (clinical isolate), test II
[30] = strain 4 (clinical isolate), test II
[31] = strain 5 (clinical isolate), test I
[32] = strain 5 (clinical isolate), test II
[33] = strain 6 (clinical isolate), test I
[34] = strain 6 (clinical isolate), test II
[35] = strain 9 (clinical isolate), test II
[36] = Chlamydia pneumoniae, strain 4 (clinical isolate), test I, read-out: MIC
[37] = Chlamydia pneumoniae, strain 6 (clinical isolate), test II, read-out: MIC
[38] = Chlamydia pneumoniae, strain 7 (clinical isolate), test I, read-out: MIC
[39] = Chlamydia pneumoniae, strain 7 (clinical isolate), test II, read-out: MIC
[40] = Chlamydia pneumoniae, strain 8 (clinical isolate), test I, read-out: MIC
[41] = Chlamydia pneumoniae, strain 8 (clinical isolate), test II, read-out: MIC
[42] = Chlamydia pneumoniae, strain 9 (clinical isolate), test I, read-out: MIC
[43] = Chlamydia pneumoniae, strain TW 183, test II, read-out: MIC

CC[C@H]1OC(=O)[C@H](C)[C@@H](O[C@H]2C[C@@](C)(OC)[C@@H](O)[C@H](C)O2)[C@H](C)[C@@H](O[C@@H]2O[C@H](C)C[C@H](N(C)C)[C@H]2O)[C@](C)(OC)C[C@@H](C)C(=O)[C@H](C)[C@@H](O)[C@]1(C)O [Clarithromycin, clarithromycin]
0.125 µg/mL: MIC (Chlamydia pneumoniae [2]; Chlamydia pneumoniae) | MIC (Chlamydia pneumoniae [2]; [18]) | MIC (Chlamydia pneumoniae [2]; [19]) | MIC (Chlamydia pneumoniae [2]; [20]) | MIC (Chlamydia pneumoniae [2]; [21]) | MIC (Chlamydia pneumoniae [2]; [22]) | MIC (Chlamydia pneumoniae [2]; [23]) | MIC (Chlamydia pneumoniae [2]; strain TW 183, test II)
0.03 µg/mL: MIC (Chlamydia pneumoniae [2]; [4]) | MIC (Chlamydia pneumoniae [2]; [5]) | MIC (Chlamydia pneumoniae [2]; [6]) | MIC (Chlamydia pneumoniae [2]; [7]) | MIC (Chlamydia pneumoniae [2]; [9]) | MIC (Chlamydia pneumoniae [2]; [10]) | MIC (Chlamydia pneumoniae [2]; [11]) | MIC (Chlamydia pneumoniae [2]; [13]) | MIC (Chlamydia pneumoniae [2]; [14]) | MIC (Chlamydia pneumoniae [2]; [15]) | MIC (Chlamydia pneumoniae [2]; [16]) | MIC (Chlamydia pneumoniae [2]; [17])
0.06 µg/mL: MIC (Chlamydia pneumoniae [2]; [12])
0.03 to 0.25 µg/mL: MIC (Chlamydia pneumoniae [2]; [3])
active: activity in vitro against Chlamydia pneumoniae (Chlamydia pneumoniae [1])
0.25 µg/mL: MIC (Chlamydia pneumoniae [2]; [8])

CS(=O)(=O)c1ccc([C@@H](O)[C@@H](CO)NC(=O)C(Cl)Cl)cc1 [thiamphenicol]
0.03 to 0.25 µg/mL: MIC (Chlamydia pneumoniae [2]; [3])
active: activity against Chlamydia trachomatis (Chlamydia trachomatis)

CC1(C)S[C@@H]2[C@H](NC(=O)[C@H](N)c3ccc(O)cc3)C(=O)N2[C@H]1C(=O)O [Amoxicillin, amoxicillin]
> 16 µg/mL: MIC (Chlamydia pneumoniae [2]; [3])

CC(=O)N[C@@H](CS)C(=O)O.CS(=O)(=O)c1ccc([C@@H](O)[C@@H](COC(=O)CN)NC(=O)C(Cl)Cl)cc1 [TGA, thiamphenicol glycinate acetylcysteinate]
0.06 µg/mL: MIC (Chlamydia pneumoniae [2]; [25]) | MIC (Chlamydia pneumoniae [2]; [30]) | MIC (Chlamydia pneumoniae [2]; strain TW 183, test I)
0.03 µg/mL: MIC (Chlamydia pneumoniae [2]; [24]) | MIC (Chlamydia pneumoniae [2]; [26]) | MIC (Chlamydia pneumoniae [2]; [27]) | MIC (Chlamydia pneumoniae [2]; [33]) | MIC (Chlamydia pneumoniae [2]; [34]) | MIC (Chlamydia pneumoniae [2]; [19]) | MIC (Chlamydia pneumoniae [2]; [20]) | MIC (Chlamydia pneumoniae [2]; [22]) | MIC (Chlamydia pneumoniae [2]; strain ATCC 2023, test I) | MIC (Chlamydia pneumoniae [2]; strain ATCC 2023, test II) | MIC (Chlamydia pneumoniae [2]; strain TW 183, test II)
0.125 µg/mL: MIC (Chlamydia pneumoniae [2]; [28]) | MIC (Chlamydia pneumoniae [2]; [29]) | MIC (Chlamydia pneumoniae [2]; [31]) | MIC (Chlamydia pneumoniae [2]; [32]) | MIC (Chlamydia pneumoniae [2]; [21]) | MIC (Chlamydia pneumoniae [2]; [23]) | MIC (Chlamydia pneumoniae [2]; [35])
0.25 µg/mL: MIC (Chlamydia pneumoniae [2]; [18])

CO/N=C(\C(=O)N[C@@H]1C(=O)N2C(C(=O)O)=C(CSc3nc(=O)c(=O)[nH]n3C)CS[C@H]12)c1csc(N)n1 [Ceftriaxone, ceftriaxone]
> 16 µg/mL: MIC (Chlamydia pneumoniae [2]; [3])

CC[C@H]1OC(=O)[C@H](C)[C@@H](O[C@H]2C[C@@](C)(OC)[C@@H](O)[C@H](C)O2)[C@H](C)[C@@H](O[C@@H]2O[C@H](C)C[C@H](N(C)C)[C@H]2O)[C@](C)(O)C[C@@H](C)CN(C)[C@H](C)[C@@H](O)[C@]1(C)O [Azithromycin, azithromycin]
0.25 µg/mL: MIC (Chlamydia pneumoniae [2]; [9]) | MIC (Chlamydia pneumoniae [2]; [13]) | MIC (Chlamydia pneumoniae [2]; [14]) | MIC (Chlamydia pneumoniae [2]; [37]) | MIC (Chlamydia pneumoniae [2]; [38]) | MIC (Chlamydia pneumoniae [2]; [39]) | MIC (Chlamydia pneumoniae [2]; [40]) | MIC (Chlamydia pneumoniae [2]; [41]) | MIC (Chlamydia pneumoniae [2]; [43])
active: activity in vitro against Chlamydia pneumoniae (Chlamydia pneumoniae [1])
0.06 to 0.5 µg/mL: MIC (Chlamydia pneumoniae [2]; [3])
0.5 µg/mL: MIC (Chlamydia pneumoniae [2]; [6]) | MIC (Chlamydia pneumoniae [2]; [36]) | MIC (Chlamydia pneumoniae [2]; [12]) | MIC (Chlamydia pneumoniae [2]; [42])
0.06 µg/mL: MIC (Chlamydia pneumoniae [2]; [4]) | MIC (Chlamydia pneumoniae [2]; [8]) | MIC (Chlamydia pneumoniae [2]; [10]) | MIC (Chlamydia pneumoniae [2]; [11])

CN(C)[C@@H]1C(O)=C(C(N)=O)C(=O)[C@@]2(O)C(O)=C3C(=O)c4c(O)cccc4[C@@](C)(O)[C@H]3C[C@@H]12.Cl [Tetracycline, tetracycline hydrochloride]
0.5 µg/mL: MIC (Chlamydia pneumoniae [2]; [30]) | MIC (Chlamydia pneumoniae [2]; [34]) | MIC (Chlamydia pneumoniae [2]; [35])
0.06 to 0.5 µg/mL: MIC (Chlamydia pneumoniae [2]; MIC range over the 11 Chlamydia pneumoniae strains, Hep-2 cells, 3 days)
0.06 µg/mL: MIC (Chlamydia pneumoniae [2]; [24]) | MIC (Chlamydia pneumoniae [2]; [25]) | MIC (Chlamydia pneumoniae [2]; [26]) | MIC (Chlamydia pneumoniae [2]; [27]) | MIC (Chlamydia pneumoniae [2]; [33]) | MIC (Chlamydia pneumoniae [2]; [21]) | MIC (Chlamydia pneumoniae [2]; [22]) | MIC (Chlamydia pneumoniae [2]; [23]) | MIC (Chlamydia pneumoniae [2]; strain ATCC 2023, test I) | MIC (Chlamydia pneumoniae [2]; strain TW 183, test I) | MIC (Chlamydia pneumoniae [2]; strain TW 183, test II)
0.25 µg/mL: MIC (Chlamydia pneumoniae [2]; [32])
0.125 µg/mL: MIC (Chlamydia pneumoniae [2]; [28]) | MIC (Chlamydia pneumoniae [2]; [29]) | MIC (Chlamydia pneumoniae [2]; [18]) | MIC (Chlamydia pneumoniae [2]; [31]) | MIC (Chlamydia pneumoniae [2]; [19]) | MIC (Chlamydia pneumoniae [2]; [20]) | MIC (Chlamydia pneumoniae [2]; strain ATCC 2023, test II)

C[C@H]1c2cccc(O)c2C(=O)C2=C(O)[C@]3(O)C(=O)C(C(N)=O)=C(O)[C@@H](N(C)C)[C@@H]3[C@@H](O)[C@@H]21 [Doxycycline, doxycycline]
0.25 µg/mL: MIC (Chlamydia pneumoniae [2]; [40]) | MIC (Chlamydia pneumoniae [2]; [42]) | MIC (Chlamydia pneumoniae [2]; [16]) | MIC (Chlamydia pneumoniae [2]; [43])
0.06 to 0.25 µg/mL: MIC (Chlamydia pneumoniae [2]; [3])
0.125 µg/mL: MIC (Chlamydia pneumoniae [2]; [7]) | MIC (Chlamydia pneumoniae [2]; [8]) | MIC (Chlamydia pneumoniae [2]; [9]) | MIC (Chlamydia pneumoniae [2]; [10]) | MIC (Chlamydia pneumoniae [2]; [11]) | MIC (Chlamydia pneumoniae [2]; [13]) | MIC (Chlamydia pneumoniae [2]; [17])
0.06 µg/mL: MIC (Chlamydia pneumoniae [2]; [4]) | MIC (Chlamydia pneumoniae [2]; [5]) | MIC (Chlamydia pneumoniae [2]; [6]) | MIC (Chlamydia pneumoniae [2]; [36]) | MIC (Chlamydia pneumoniae [2]; [12]) | MIC (Chlamydia pneumoniae [2]; [14]) | MIC (Chlamydia pneumoniae [2]; [15]) | MIC (Chlamydia pneumoniae [2]; [37]) | MIC (Chlamydia pneumoniae [2]; [38]) | MIC (Chlamydia pneumoniae [2]; [39]) | MIC (Chlamydia pneumoniae [2]; [41])
